Counter-ions that a name gives are not always drawn. Like-named read-outs stand apart in the source and are kept apart here.
Legend:
[1] = tested on: spontaneous dilated cardiomyopathy (J2N-k) hamster model; experiment: Spontaneous dilated cardiomyopathy (J2N-k) hamster model, 8-week administration from 20 weeks of age (Tests 1-3): echocardiography, body weight
Method: The doses of pharmaceutical products were determined based on the no-observed-adverse-effect levels in a long-term toxicity study using rats. δ-Glycan-deficient spontaneous dilated cardiomyopathy (J2N-k) male hamsters (Japan SLC, Inc.) were delivered at 18 weeks of age. After a 2-week quarantine/acclimation, echocardiography was performed.
Each of the pharmaceutical products (A to K and O) was individually administered twice daily (at an interval of 8 hours or more) by oral gavage, and echocardiography was performed after 4 and 8 weeks (before dissection). Differences from the value before the start of administration (at the time of grouping) (amount of change: Δ) in each group were examined, and the cardiac function (EF value, FS %, etc.) was compared with that in the vehicle group (Group 1). Moreover, the heart was removed […] after the start of administration, and electron microscopy and RNA protein measurement were performed. Specimens for immunopathology were also collected and evaluated.
Each pharmaceutical product was individually suspended in 0.5% CMC-Na (sodium carboxymethylcellulose; Wako Pure Chemical Industries, Ltd.) before use, and administered. […] To Group 1 (control), 0.5% CNC-Na (vehicle) was administered.
Each pharmaceutical product was individually suspended in 0.5% CMC-Na (sodium carboxymethylcellulose; Wako Pure Chemical Industries, Ltd.) before use, and administered. Test substance G was suspended in distilled water before use, and administered.
Reason the doses were set (assuming that the adult body weight was 60 kg, the same amounts as the maximum clinical doses were set) • 1) The clinical dose of C (ozagrel; OZ) was 200 mg twice per day. The dose was thus set to 3.3 mg/kg twice per day. • 2) The clinical dose of D (cilostazol; CS) was 100 mg twice per day. The dose was thus set to 1.7 mg/kg twice per day. • 3) The clinical dose of E (pirfenidone; PF) was 600 mg three times per day, i.e., 1800 mg/day in total. The dose was thus set to 15 mg/kg twice per day. • 4) The clinical dose of G (nintedanib sulfonate; OB) was 150 mg twice per day. The dose was thus set to 2.5 mg/kg twice per day. • 5) The clinical dose of P (carvedilol; CV) was 10 mg twice per day. The dose was thus set to 0.17 mg/kg twice per day. • 6) Preparation 2 (PLGA⋅MS preparation of camostat; B⋅MS): the clinical dose of active substance camostat was 200 mg three times per day, i.e., 600 mg/day in total; thus, intermittent subcutaneous administration at a daily dose of 10 mg/kg once every 4 weeks, twice in total was set. The dose was 1/28 of the total oral dose amount.
The dose volume in oral administration was 5 mL/kg (the amount of liquid to be administered to each animal was calculated based on the most recent body weight), and administered by oral gavage using a polypropylene disposable syringe and a rat stomach tube.
The administration period of each pharmaceutical product was 8 weeks.

rats [2] = experiment: Repeated oral administration toxicity study in rats (dose-setting basis); details: mg/kg twice per day, oral preparation
Excerpt: The dose-setting basis for the doses of the test substances used in pharmacological tests is as described below.

rats [3] = details: cited from earlier work
[4] = tested on: rat coronary artery complete ischemia model; experiment: Model of ischemia (MI) by rat coronary artery complete ligation (Tests 1 and 2): echocardiography, body weight; details: MI Test 2, B 150, G 5, I 30, C 10 mg/kg p.o. b.i.d.; for Body weight: B MS 100, C MS 50, I MS 30 mg/kg s.c. single injection, mean; for value of change in E.F. compared with E.F. on Day 1 / value of change in F.S. compared with F.S. on Day 1: B-MS 100, C-MS 50, F-MS 30 mg/kg s.c. single injection, mean ± S.D.
[5] = cited from earlier work
[6] = Test 2, p.o. b.i.d., NOAEL-based dose

With `CCCc1nn(C)c2c(=O)[nH]c(-c3cc(S(=O)(=O)N4CCN(C)CC4)ccc3OCC)nc12` [Compound I, Sildenafil citrate] the “Body weight 0 W” value ([1]; Test 2, at grouping) was 120.4 g, the “LVIDd 4 W” value ([1]; Test 2, p.o. b.i.d.) was 7.1 mm and the “LVIDd 8 W” value ([1]; Test 2, p.o. b.i.d.) was 7.3 mm. For the same molecule, the “LVIDs 4 W” value ([1]; Test 2, p.o. b.i.d.) was 5.9 mm, the “LVIDs 8 W” value ([1]; Test 2, p.o. b.i.d.) was 6.2 ± mm and the “Body weight 2 W” value [1, 6] was 122.3 g. For the same molecule, the “Body weight 3 W” value [1, 6] was 123.7 g, the “Body weight 4 W” value [1, 6] was 125.5 g and the “Body weight 5 W” value [1, 6] was 126.9 g. For the same molecule, the “Body weight 6 W” value [1, 6] was 128.9 g, the “Minimal effective dose (screening 2)” value ([1]; mg/kg twice per day, oral preparation) was 0.4 mg/kg and the “Maximum no-observed-adverse-effect level (screening 1)” value (rats [2]) was 30 mg/kg. The Lethal dose (rats [3]; intravenous injection in rats) was no less than 10 mg/kg, the Lethal dose (rats [3]; oral administration) was no less than 1000 mg/kg and the “Body weight” value ([4]; 1 Day) was 240.3 g. For the same molecule, the “Body weight” value ([4]; 7 Day) was 237.3 g, the “Body weight” value ([4]; 14 Day) was 263.0 g and the “value of change in E.F. compared with E.F. on Day 1” value ([4]; 14 Day) was <−5.1 ± 2.5> %. For the same molecule, the “value of change in F.S. compared with F.S. on Day 1” value ([4]; 14 Day) was <−2.8 ± 1.4> %, the “Body weight” value ([4]; 21 Day) was 278.3 g and the “Body weight” value ([4]; 29 Day) was 297.5 g. For the same molecule, the “value of change in E.F. compared with E.F. on Day 1” value ([4]; 29 Day) was <−7.6 ± 4.3> % and the “value of change in F.S. compared with F.S. on Day 1” value ([4]; 29 Day) was <−4.1 ± 2.3> %.
In the case of `Cn1c(=O)c2[nH]cnc2n(C)c1=O` [Compound H, Theophylline], the “LVIDd 4 W” value ([1]; Test 2, p.o. b.i.d.) is reported as 7.0 mm, the “LVIDd 8 W” value ([1]; Test 2, p.o. b.i.d.) is reported as 7.3 mm and the “LVIDs 4 W” value ([1]; Test 2, p.o. b.i.d.) is reported as 5.9 ± mm. For the same molecule, the “LVIDs 8 W” value ([1]; Test 2, p.o. b.i.d.) was 6.3 mm, the “% FS 4 W” value [1, 6] was “not significantly higher” and the “% FS value of change at 4 W compared with 0 W” value [1, 6] was “not significantly higher”. The “Body weight 0 W” value ([1]; hamster, in vivo) was 121.4 g, the “Body weight 1 W” value ([1]; hamster, in vivo, po) was 120.2 g and the “Body weight 2 W” value ([1]; hamster, in vivo, po) was 120.2 g. For the same molecule, the “Body weight 3 W” value ([1]; hamster, in vivo, po) was 121.0 g, the “Body weight 4 W” value ([1]; hamster, in vivo, po) was 122.4 g and the “Body weight 6 W” value ([1]; hamster, in vivo, po) was 122.6 g. For the same molecule, the “Body weight 8 W” value ([1]; hamster, in vivo, po) was 123.6 g, the “Headache (headache/heavy-headedness) cases” value ([5]; human, in vivo) was 2.56% and the “Nausea cases (cilostazol: nausea/vomiting)” value ([5]; human, in vivo) was 4.05%. The Palpitations cases ([5]; human, in vivo) was 1.17% and the “Cases with side effects (including laboratory test value abnormality)” value ([5]; share of cases evaluated for safety) was 9.05%.

— US20200360391A1, “Medicinal Composition for Treating Intractable Heart Disease” (Osaka University, priority 2016, published 2020)
